Measured values as given in US12109177B2 (priority 2021, dated 2024).
“Also recorded” adds a separate entry of the source. Read-outs that look alike come from different tables or passages of the source.

Tests used:
VX2 brain tumor = details: rabbit, in vivo
blood neutrophils [1] = details: rabbit, in vivo
blood neutrophils [2] = details: mouse, in vivo
flank GL261 tumor = details: in vivo

Structure (SMILES) | long-term survivors (VX2 brain tumor) | blood neutrophil count (blood neutrophils [1]) | blood neutrophil count (blood neutrophils [2]) | other blood cell counts (blood neutrophils [2]) | lymphocyte count (blood neutrophils [2]; ip) | deaths from tumor regrowth (VX2 brain tumor) | intratumoral accumulation of neutrophils (VX2 brain tumor) | mice died of treatment-related (immediate) toxicity (flank GL261 tumor; female, C57BL6, mouse) | mice cured (total tumor clearance, absence of any tumor after 3 weeks) (flank GL261 tumor; mouse) | mice with partial tumor clearance (initial reduction, later regrowth) (flank GL261 tumor; mouse) | therapeutic effect of agent alone (flank GL261 tumor; mouse) | lymphocyte counts (blood neutrophils [1]) | other blood cell types (blood neutrophils [1]) | time to neutrophil count rebound after spore injection (blood neutrophils [1])
O=P1(N(CCCl)CCCl)NCCCO1 (stereo not drawn) [CPA, cyclophosphamide] | without any long-term survivor | significant neutrophil suppression | – | – | – | – | – | – | – | – | – | – | – | –
NC(=O)NO [HU, hydroxyurea] | 8 | – | greatly suppressed the neutrophil levels; also recorded: drastically reduced the neutrophil counts | also affected in various degrees | significant drop of lymphocytes | one | effective in suppressing the intratumoral accumulation of neutrophils | 2/12 | 9/12 | 1/12 | did not show any noticeable therapeutic effects | not significantly affected | has not affected other blood cell types significantly | at least 3 days
